Literature values, collected in patent US20070083941A1, “Rat TRPM7 polynucleotide and encoded protein” (Wyeth, priority 2005, published 2007).
pIC50: −log10 of the molar value.

Target: TRPM7 (Homo sapiens, UniProt Q96QT4)
Conditions: high concentrations of intracellular MgATP and Mg^2+; basal activity of TRPM7; read-out: IC50 of inhibition of TRPM7

Chain of TRPM7 (Q96QT4 whole entry, species assumed): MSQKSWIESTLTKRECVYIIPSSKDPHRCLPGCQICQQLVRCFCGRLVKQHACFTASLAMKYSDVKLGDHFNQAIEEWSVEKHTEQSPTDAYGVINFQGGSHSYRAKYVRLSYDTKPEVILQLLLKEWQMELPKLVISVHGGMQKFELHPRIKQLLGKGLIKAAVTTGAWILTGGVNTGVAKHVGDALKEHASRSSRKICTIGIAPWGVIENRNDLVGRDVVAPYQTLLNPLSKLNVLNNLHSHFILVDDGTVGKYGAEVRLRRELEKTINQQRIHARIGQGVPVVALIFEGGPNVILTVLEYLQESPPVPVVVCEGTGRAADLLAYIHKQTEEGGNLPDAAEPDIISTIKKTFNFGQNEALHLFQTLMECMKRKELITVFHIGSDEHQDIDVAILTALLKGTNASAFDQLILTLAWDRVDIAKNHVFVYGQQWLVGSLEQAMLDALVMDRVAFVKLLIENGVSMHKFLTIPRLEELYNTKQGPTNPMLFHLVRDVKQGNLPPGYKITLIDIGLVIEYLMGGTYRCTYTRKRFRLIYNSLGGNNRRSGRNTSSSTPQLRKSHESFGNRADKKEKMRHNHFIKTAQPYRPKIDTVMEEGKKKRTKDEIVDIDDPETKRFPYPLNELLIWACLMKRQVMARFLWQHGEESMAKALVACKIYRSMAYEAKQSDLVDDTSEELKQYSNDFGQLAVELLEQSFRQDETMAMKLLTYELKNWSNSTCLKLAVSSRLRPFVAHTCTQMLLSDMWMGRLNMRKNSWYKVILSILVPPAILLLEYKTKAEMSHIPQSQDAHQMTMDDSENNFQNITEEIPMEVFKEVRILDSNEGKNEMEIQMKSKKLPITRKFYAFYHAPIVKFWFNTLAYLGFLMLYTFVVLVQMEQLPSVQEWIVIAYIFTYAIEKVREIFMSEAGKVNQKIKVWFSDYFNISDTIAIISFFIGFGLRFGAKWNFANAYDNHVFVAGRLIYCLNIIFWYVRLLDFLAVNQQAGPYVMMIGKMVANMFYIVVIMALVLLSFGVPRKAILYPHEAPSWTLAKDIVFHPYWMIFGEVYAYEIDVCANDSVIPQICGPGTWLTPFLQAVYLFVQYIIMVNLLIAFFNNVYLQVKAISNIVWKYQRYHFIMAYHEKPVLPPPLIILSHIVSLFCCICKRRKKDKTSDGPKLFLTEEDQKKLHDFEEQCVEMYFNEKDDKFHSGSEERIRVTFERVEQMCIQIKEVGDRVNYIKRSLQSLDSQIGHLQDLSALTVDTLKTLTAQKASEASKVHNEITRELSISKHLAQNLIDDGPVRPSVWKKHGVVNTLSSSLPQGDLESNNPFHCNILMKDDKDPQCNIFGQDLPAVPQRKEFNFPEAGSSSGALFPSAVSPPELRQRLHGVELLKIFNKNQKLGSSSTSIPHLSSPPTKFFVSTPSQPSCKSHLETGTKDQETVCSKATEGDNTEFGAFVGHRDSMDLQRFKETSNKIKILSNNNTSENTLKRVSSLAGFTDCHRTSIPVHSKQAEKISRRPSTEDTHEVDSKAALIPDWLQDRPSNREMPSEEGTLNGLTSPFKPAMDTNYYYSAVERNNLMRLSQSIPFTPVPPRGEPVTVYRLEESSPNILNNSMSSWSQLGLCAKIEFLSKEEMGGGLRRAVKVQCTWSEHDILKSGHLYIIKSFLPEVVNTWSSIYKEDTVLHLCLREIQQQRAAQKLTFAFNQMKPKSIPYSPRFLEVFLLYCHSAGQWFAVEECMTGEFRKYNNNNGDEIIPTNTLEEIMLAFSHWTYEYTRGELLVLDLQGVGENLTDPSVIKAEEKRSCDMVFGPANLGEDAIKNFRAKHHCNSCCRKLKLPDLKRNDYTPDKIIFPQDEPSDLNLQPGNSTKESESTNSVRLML

SMILES | pIC50
Nc1ncnc2c1ncn2[C@@H]1O[C@H](COP(=O)(O)OP(=O)(O)OP(=O)(O)O)[C@@H](O)[C@H]1O [MgATP] | ~3.22
[Mg+2] [Mg^2+] | ~3.22
